Legend:
HepG2 cells = test: Colony (focus) formation assay, HepG2; format: cell-based, human; conditions: HepG2, 21-day treatment
Experimental: A549 lung carcinoma and HepG2 hepatocarcinoma cells were seeded at 4000 and 10000 cells/well respectively in 96-well plates, as previously described for cell growth inhibition assay [27, 44]. To assess anchorage-dependent colony formation effect, the cells (1000 cells/well) were seeded in a six-well plate for 20-24 h prior to treatments of vehicle DMSO or compounds as indicated. Culture medium containing vehicle DMSO or compounds as indicated was changed twice a week. After a 21-day treatment, the cell colonies were rinsed with PBS, fixed in 3:1 ratio of methanol and acetic acid, stained with 0.05% crystal violet.

[1] = Carcinoma cell growth inhibition (cytotoxicity), A549; conditions: human, A549 lung carcinoma cells
Experimental: (§1) The cancer cell lines including HepG2 and A549 were obtained from American Type Culture Collection (Rockville, MD). The cells were cultured in DMEM medium with 10% FBS (v/v) and penicillin (100 units/ml)/ streptomycin (100 mg/ml). Cultures were maintained in a humidified incubator at 37°C in 5% CO2/95% air. Dulbecco's Modified Eagle Medium (DMEM), fetal bovine serum (FBS), penicillin, streptomycin, and all other tissue culture reagents were obtained from GIBCO/BRL Life Technologies (Grand Island, NY).
(§2) A549 lung carcinoma and HepG2 hepatocarcinoma cells were seeded at 4000 and 10000 cells/well respectively in 96-well plates, as previously described for cell growth inhibition assay [27, 44].

[2] = Carcinoma cell growth inhibition (cytotoxicity), HepG2; conditions: human, HepG2 hepatocarcinoma cells
Experimental: as §1, §2

human GAB = molecular target: T1, human GAB (Homo sapiens, UniProt Q9UI32); test: Two-step glutaminase activity assay, purified recombinant GAB; format: biochemical; conditions: recombinant wild-type GAB, absence of phosphate
T1 construct: Equivalent construct of GAB (Pro56-Val602) was amplified from the cDNA clone; His-tag (N); made in house; host or cells: Escherichia coli C41(DE3)pLysS
T1 sequence (Q9UI32 56-602): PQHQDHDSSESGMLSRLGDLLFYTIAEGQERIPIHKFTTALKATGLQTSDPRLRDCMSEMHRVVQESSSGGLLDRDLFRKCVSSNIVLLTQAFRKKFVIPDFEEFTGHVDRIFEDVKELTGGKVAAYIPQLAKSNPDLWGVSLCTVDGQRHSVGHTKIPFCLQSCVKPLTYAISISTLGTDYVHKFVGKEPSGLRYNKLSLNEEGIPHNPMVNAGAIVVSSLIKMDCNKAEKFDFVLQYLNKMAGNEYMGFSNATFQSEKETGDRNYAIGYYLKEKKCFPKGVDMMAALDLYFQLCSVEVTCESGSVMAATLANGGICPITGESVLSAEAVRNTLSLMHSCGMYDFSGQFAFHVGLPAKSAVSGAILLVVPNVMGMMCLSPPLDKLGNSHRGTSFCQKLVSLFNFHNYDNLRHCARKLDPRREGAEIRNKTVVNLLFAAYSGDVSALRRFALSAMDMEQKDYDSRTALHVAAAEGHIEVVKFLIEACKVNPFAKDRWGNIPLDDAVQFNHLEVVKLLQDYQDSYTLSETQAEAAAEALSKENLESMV
Experimental: Equivalent construct of GAB […]) was amplified from the cDNA clone MGC: 195512 IMAGE: 100066375 (Invitrogen Inc., USA). The sequences of the primers were: [NT] (BamHI) and [NT] (Notl). The resultant GAB-expression vector, pET28a(+)-GAB, was transformed into Escherichia coli strain […] Biotech Co., Taiwan). The expression protocol was followed as that protocol of KGA construct. The cells after induction were collected and resuspended in lysis buffer (50 mM Tris-HCl pH 8.5, 500 mM NaCl, 10% glycerol, and 10 mM β-ME) for sonication. […] His-tagged GAB was eluted with lysis buffer containing 200 mM imidazole. The eluted GAB was exchanged to 20 mM Tris-HCl (pH 8.0), 300 mM NaCl, 50% glycerol, and 2 mM dithiothreitol by using a PD-10 Desalting column (GE Healthcare). Human glutaminase activity was measured using a two-step assay as described previously. A microtiter assay format was used to facilitate the collection of multiple data points. […] Samples were incubated at 25°C for 10 min and then 10 μl of 200 mM glutamine were added to the reaction mix. After adding glutamine, the reactions were incubated at 37°C for 60 min and then quenched by the addition of 10 μl of 0.6 M HCl. Subsequently, 100 μl of a second reaction mixture (3.7 units of purified bovine liver glutamate dehydrogenase, 160 mM Tris/acetate [pH 9.4], 400 mM hydrazine, 5 mM ADP and 2 mM NAD^+) was added to the stopped first reaction mixture and incubated for 30 min at 25°C. The absorbance at 340 nm was measured using a Wallac Victor2V plate reader (PerkinElmer), fitted with a 340 nm excitation filter. Sample absorbance was measured against a blank, containing no human glutaminase. The kinetic constants Km and Vmax were determined by using Kaleida Graph software (Synergy Software) to calculate a non-linear least-squares fit for all the data points to the Michaelis-Menten equation.

human KGA = molecular target: T2, human KGA (Homo sapiens, UniProt O94925); test: Two-step glutaminase activity assay, purified recombinant KGA; format: biochemical; conditions: recombinant wild-type KGA, absence of phosphate
T2 construct: a KGA cDNA fragment of 1644 bp (residues Leu123-Leu669); His-tag (N); made in house; host or cells: Escherichia coli BL21(DE3)pLysS
T2 sequence (O94925 123-669): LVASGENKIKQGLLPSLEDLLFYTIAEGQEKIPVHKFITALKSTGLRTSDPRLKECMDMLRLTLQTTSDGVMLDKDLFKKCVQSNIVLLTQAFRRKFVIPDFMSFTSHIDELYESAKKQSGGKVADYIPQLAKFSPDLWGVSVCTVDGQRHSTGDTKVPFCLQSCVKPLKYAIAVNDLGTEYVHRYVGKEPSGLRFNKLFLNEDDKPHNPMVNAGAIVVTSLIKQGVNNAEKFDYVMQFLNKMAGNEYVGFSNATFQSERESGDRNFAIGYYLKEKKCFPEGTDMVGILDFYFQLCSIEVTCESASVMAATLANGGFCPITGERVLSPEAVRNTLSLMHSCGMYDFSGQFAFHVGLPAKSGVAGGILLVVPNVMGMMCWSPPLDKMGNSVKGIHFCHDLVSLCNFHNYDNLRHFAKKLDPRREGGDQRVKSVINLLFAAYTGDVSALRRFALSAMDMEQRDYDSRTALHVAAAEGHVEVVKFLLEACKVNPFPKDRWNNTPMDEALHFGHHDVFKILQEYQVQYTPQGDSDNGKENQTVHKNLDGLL
Experimental: The cDNA fragment of KGA digested with BamHI and NotI at each end was ligated into the pET28a(+) vector (Novagen) and expressed as a his-tag fusion. Escherichia coli strain BL21(DE3)pLysS was transformed with the resulting plasmid, pET28a(+)-KGA, and then cultured in Luria-Bertani broth medium in the presence of kanamycin. […] The cells were harvested by centrifugation at 10,000 rpm for 15 min at 4°C and resuspended in lysis buffer (5 mM Tris-HCl [pH 8.0], 50 mM NaH2PO4, 300 mM NaCl and 10 mM imidazole) for sonication. […] The eluted protein was exchanged to 20 mM Tris-HCl (pH 8.0), 300 mM NaCl, 10% glycerol, and 2 mM dithiothreitol by using a PD-10 Desalting column (GE Healthcare). The concentration of the purified protein was determined by use of the Bio-Rad protein assay reagent with a standard curve plotted against bovine serum albumin. […] A microtiter assay format was used to facilitate the collection of multiple data points. […] Samples were incubated at 25°C for 10 min and then 10 μl of 200 mM glutamine were added to the reaction mix. After adding glutamine, the reactions were incubated at 37°C for 60 min and then quenched by the addition of 10 μl of 0.6 M HCl. Subsequently, 100 μl of a second reaction mixture (3.7 units of purified bovine liver glutamate dehydrogenase, 160 mM Tris/acetate [pH 9.4], 400 mM hydrazine, 5 mM ADP and 2 mM NAD^+) was added to the stopped first reaction mixture and incubated for 30 min at 25°C. The absorbance at 340 nm was measured using a Wallac Victor2V plate reader (PerkinElmer), fitted with a 340 nm excitation filter. Sample absorbance was measured against a blank, containing no human glutaminase. The kinetic constants Km and Vmax were determined by using Kaleida Graph software (Synergy Software) to calculate a non-linear least-squares fit for all the data points to the Michaelis-Menten equation.

in vitro [3] = conditions: human
Experimental: as §1, §2

in vitro [4] = conditions: human; remark: listed apart in the source
Experimental: as §1, §2

AMPK = test: Western blot of AMPK_ULK1 axis signaling in HepG2 cells; format: cell-based, human; conditions: co-treatment with AV-1
Experimental: (§3) The cells were cultured in DMEM medium with 10% FBS (v/v) and penicillin (100 units/ml)/ streptomycin (100 mg/ml). Cultures were maintained in a humidified incubator at 37°C in 5% CO2/95% air. Dulbecco's Modified Eagle Medium (DMEM), fetal bovine serum (FBS), penicillin, streptomycin, and all other tissue culture reagents were obtained from GIBCO/BRL Life Technologies (Grand Island, NY). Antibodies to GAPDH, caspase 3, LC3B, p-ULK1(S317), p-ULK1(S757), Beclin1, p-BCL2(S70), p70S6K, p-p70S6K(T389), 4E-BP1, α-tubulin, 4E-BP, p-4E-BP(S65), p-eIF4B(S422), mTOR, p-mTOR(S2481), p-mTOR(S2448), p-Raptor(S792), Tuberin, p-Tuberin(T1462), p-Tuberin(T1387), p-AMPK(T172) and p-AMPK(S108) were from Cell Signaling Technology; antibody to p-Beclin1(S15) was from Abbiotec; antibodies to KGA and Raptor were from Abcam; antibodies to BCL2 were from Upstate Biotechnology; antibodies to α-tubulin were from Chemicon International; antibodies to ULK1, β-tublin and AMPK were from GeneTex; antibodies to GAB were from abnova and Gene Tex; antibodies to GAC were from ProteinTech Group; antibodies to p-mTOR(S2446) and AMPK were from Millipore; anti-mouse and anti-rabbit IgGs were obtained from PerkinElmer. […] Compound C was obtained from Sigma–Aldrich (St. Louis, MO). Western blotting was performed as described [40].

mTORC1 = test: Western blot of mTORC1 components and downstream targets in HepG2 cells; format: cell-based, human; conditions: co-treatment with AV-1
Experimental: as §3

SMILES	IC50 (human GAB) [µM]	IC50 (human KGA) [µM]	CC50 [1] [µM]	CC50 [2] [µM]	other results
O=C(Cc1ccccc1)Nc1nnc(CCSCCc2nnc(NC(=O)Cc3ccccc3)s2)s1 [BPTES]					IC50 (HepG2 cells): 2.8 ± 0.4 µM
[N-]=[N+]=CC(=O)CC[C@H](N)C(=O)O [DON, reference compound]		59.9 ± 8.8			
CCCCCCCCCCCC(Cc1cc(O)cc(OC)c1O)OC(C)=O (centres unmarked) [AV-8]			11.6 ± 0.4	18.8 ± 0.7	
CCCCCCCCCCCCCC1=C(O)C(=O)C=C(OC)C1=O [AV-7]					CC50 (in vitro [3]): > 50 µM; CC50 (in vitro [4]): > 50 µM
c1cc(-c2cnn3cc(-c4ccc(OCCN5CCCCC5)cc4)cnc23)ccn1 [compound C]					Effect on the AV-1 decreased phosphorylation of ULK1 Ser757 (AMPK): reversed; Effect on AV-1 induced phosphorylation of Raptor at Ser792 and Tuberin at Ser1387 (mTORC1): attenuated
COc1cc(O)cc(CCCCCCC/C=C\CCCCCCCc2cc(O)cc(O)c2)c1 [AK-11]	2.9 ± 0.5	13.4 ± 2.2			
COc1cc(O)cc(CCCCC/C=C\CCCCCCCc2cc(O)c(C)c(O)c2)c1 [AK-6]	2.5 ± 0.3	36.7 ± 3.2			
Cc1c(O)cc(CCCCCCC/C=C\CCCCCCCc2cc(O)cc(O)c2)cc1O [AK-9]	2.3 ± 0.5	11.9 ± 1.2			
Cc1c(O)cc(CCCCCCC/C=C\CCCCCCCc2cc(O)c(C)c(O)c2)cc1O [AK-7]	2.9 ± 0.8	17.5 ± 2.6	> 100	> 100	
CCCCCCCC/C=C\CCCCCCCc1cc(O)cc(O)c1 [AK-1]	2.9 ± 0.6	73 ± 3			
Cc1c(O)cc(CCCCCCC/C=C\CCCCCc2cc(O)cc(O)c2)cc1O [AK-10]	2.1 ± 0.1	11.7 ± 1.3			
CCCCCCCCCCCC(CC1=C(O)C(=O)C=C(OC)C1=O)OC(C)=O (centres unmarked) [AV-4]			> 50	> 50	
Cc1c(O)cc(CCCCC/C=C\CCCCCCCc2cc(O)c(C)c(O)c2)cc1O [AK-8]	3.1 ± 0.5	13.9 ± 1.5			
CCCCCCCC/C=C\CCCCCCCc1cc(O)c(C)c(O)c1 [AK-3]	2.7	76.9 ± 0.8			
COc1cc(O)cc(CCCCCCC/C=C\CCCCCCCc2cc(O)c(C)c(O)c2)c1 [AK-5]	2.3 ± 0.4	70 ± 1.6			
CCCCCC/C=C\CCCCCCCc1cc(O)c(C)c(O)c1 [AK-4]		59.8 ± 4.6			

More lines, main results first:

IC50 (human GAB) [µM]	IC50 (human KGA) [µM]	SMILES	CC50 [1] [µM]	CC50 [2] [µM]	other results
5.7 ± 1.1	69 ± 3.1	CCCCCCCCCCCCCC(Cc1cc(OC(C)=O)cc(OC)c1O)OC(C)=O (centres unmarked) [AV-11]	5 ± 0.8	5.2 ± 0.3	
23.1 ± 4.9		CCCCCCCCCCCC(Cc1c(O)c(OC)cc(O)c1C=O)OC(C)=O (centres unmarked) [AV-10]	22.1 ± 1.6	21.2 ± 0.8	
25.1 ± 4.5		CCCCCCCCCCCCCC(CC1=C(O)C(=O)C=C(OC)C1=O)OC(C)=O (centres unmarked) [AV-3]	> 50	> 50	
4.7 ± 1.3	41 ± 5.2	CCCCCCCCCCCCCC(=O)Cc1cc(O)cc(OC)c1OC(C)=O [AV-14]	> 50	> 50	
7.6 ± 2	52.4 ± 15.5	CCCCCCCCCCCCCC(O)Cc1cc(O)cc(OC)c1 (centres unmarked) [AV-12]	> 50	> 50	
2.9 ± 0.6	9.6 ± 1.2	COc1cc(O)cc(CCCCCCC/C=C\CCCCCc2cc(O)cc(O)c2)c1 [AK-12]	> 100	84.6 ± 2.3	
31.7 ± 6.7		CCCCCCCCCCCC(Cc1cc(OC(C)=O)cc(OC)c1O)OC(C)=O (centres unmarked) [AV-9]	13 ± 2.1	13.7 ± 2.2	
	52.7 ± 2.7	CCCCCCCc1cc(O)cc(OC)c1 [AV-13]	35.5 ± 2.6	36.9 ± 2	
